In patent US20160051514A1, “METHODS FOR TREATMENT OF CARDIOMYOPATHY” (THE BRIGHAM AND WOMEN'S HOSPITAL, INC., priority 2013, published 2016):
“Also recorded” adds a separate entry of the source.

Key:
[1] = test system: neonatal rat ventricular myocytes expressing 2057del2 plakoglobin; assay: TUNEL assay of myocyte apoptosis; assay type: cell-based; conditions: cells expressing 2057del2 plakoglobin, SB216763
Excerpt: (§1) TUNEL assay: Apoptotic cells in cultures were detected by terminal deoxynucleotidyl transferase-mediated biotinylated UTP nick end-labeling (TUNEL) assay using the ApopTag™ Fluorescein Direct in Situ Apoptosis Detection Kit (Millipore) as previously described.^9 Nuclei were stained with DAPI, and TUNEL-positive and total nuclei were counted under a laser scanning confocal microscope in 5 fields per chamber.
as §1, with “ApopTag” for “ApopTag™”, “KitTM” for “Kit”, “according to the manufacturer's instructions.” for “as previously described.^9”, “DAPI;” for “DAPI, and”, “chamber or silicone membrane in stretch experiments.” for “chamber.”

[2] = test system: neonatal rat ventricular myocytes expressing 2057del2 plakoglobin; assay: INa and IK1 current density in neonatal rat ventricular myocytes; assay type: cell-based
Description: INa activation and inactivation were measured by whole-cell voltage-clamp according to standard protocols (32,33). Cells were held at a membrane potential of −80 mV after which pulses between −120 and +50 mV were applied in 5 mV steps each with a duration of 250 ms. Inactivation was measured from membrane potentials between −120 mV and +50 mV at maximal activation (26,33). In view of the small size of zebrafish myocytes (cell capacitance of 6.7±2.6pF; n=47) it was not necessary to reduce extracellular [Na+] to achieve voltage control; extracellular [Na+] was reduced to 50 mM in studies of neonatal rat ventricular myocytes Access resistance of the patch electrodes was <7 MΩ. Measurements showing incomplete control of membrane potential were eliminated from analysis. The chemical composition of the external and pipette solutions is described in supplemental information.
The inward rectifier current IK1 was measured using the protocol described by Dobrev et al. and Nemtsas et al. (34,35). Ramp clamps of 1400 ms duration were applied between −120 and +20 mV. After each clamp, external solution containing Ba2+(1 mM) was applied via a large pore pipette placed adjacent to the clamped cell. IK1 was defined as the total current minus the Ba2+-insensitive current (33). Subtraction of the two currents was performed using a MatLab script. […]

[3] = test system: nppb::luciferase reporter; assay: nppb::luciferase reporter chemical screen in 2057del2 plakoglobin zebrafish embryos; assay type: in vivo; conditions: 72 hpf, 3 μM in the well between 48 and 72 hpf
Description: Chemical screening: Chemicals were dissolved in DMSO (Sigma-Aldrich, St. Louis, Mo., USA). Embryos (double homozygous for the 2057del2 plakoglobin mutation and the nppb::luciferase reporter) were arrayed in 96 well plates in HEPES-buffered E3 medium and small molecules were pin-transferred (200 n1) from arrayed chemical libraries. Positive (untreated wild type nppb::luciferase embryos) and negative controls (untreated 2057del2 plakoglobin/nppb::luciferase fish) were included in each plate. […] Each set of compounds was tested in duplicate to improve the discriminatory power of the assay. After being evaluated for viability, an equal volume of long half-life luciferase reagent (Promega Steady Glo™) was added to each well. The plate was then incubated in the dark for 60 min and activities were measured with a Victor 3™ luminometer (Perkin-Elmer). Each measurement was performed in duplicate and results were normalized to the number of fish in the well. Follow-up chemical treatments were performed in HEPES-buffered E3 medium in petri dishes.

[4] = test system: mutant desmoglein-2 (Dsg2) knock-in mice; assay: Mouse model of AC: mutant desmoglein-2 (Dsg2) knock-in; assay type: in vivo; conditions: daily injections for 13 weeks
Description: 2 different mouse models of AC were studied: a transgenic line with cardiac myocyte-specific expression of 2057del2 plakoglobin (Plk) and a mutant desmoglein-2 (Dsg2) knock-in model. ECG telemetry and echocardiographic analyses were performed in mutant and wildtype mice treated with daily injections of SB216763 or vehicle for 6 (2057del2 Plk) or 13 (Dsg2) weeks. Hearts excised at selected time points were analyzed for histology, apoptosis and distribution of key intercalated disk proteins.

Cn1cc(C2=C(c3ccc(Cl)cc3Cl)C(=O)NC2=O)c2ccccc21 [SB216763]
Myocyte apoptosis (TUNEL-positive nuclei) [1]: dramatically reduced the number of TUNEL positive nuclei; also recorded: significantly reduced the mean apoptosis index
Myocyte apoptosis (TUNEL-positive nuclei) ([1]; listed as SAB216763): totally abolished
Reduced INa and IK1 current densities in cells expressing mutant plakoglobin [2]: normalized the reduced current densities
nppb expression / nppb::luciferase activity [3]: normalizer of the nppb response; also recorded: reduced nppb expression
nppb expression / nppb::luciferase activity ([3]; listed as SB2): reduced nppb expression
nppb expression / nppb::luciferase activity ([3]; listed as SB216736): normalized nppb::luciferase activity
QRS duration [4]: 17.1 ± 2.7 ms
Redistribution of junctional signals for Plk, Cx43 and SAP97, and myocardial apoptosis [4]: normalized
Ejection fraction (EF) ([4]; echocardiography): 73.9±6.9%
Fractional shortening (FS) ([4]; echocardiography): 50.2±6.6%
